Holding throughout (format): in vivo
Series [1] has as its system small brown planthopper. In words: whole plant or invertebrate. The following applies: Laodelphax striatellus, 72 h. The procedure:
(§1) Rice seedlings grown in pots were subjected to soil drenching treatment with solutions of the inventive compounds at a predetermined concentration prepared to 10% acetone/water. Three days following treatment, ten second-instar small brown planthopper larvae were released onto each seedling. The treated seedlings and larvae were then held in an incubation chamber at 25° C. (16-hour period of light, 8-hour dark period). Three days after released, the numbers of live and dead insects were counted, and the mortality was calculated from the following formula. The test was carried out as two replications. Mortality (%)=[number of dead insects/(number of live insects+number of dead insects)]×100

Series [2] deals with brown rice planthopper having a low susceptibility to insecticides. On the set-up: key to Brown rice planthopper, Kumamoto low susceptibility (rice soil drenching), effect: mortality %, dead/(live+dead) ×100. Conditions: rice soil drenching, 0.05 mg/pot. The method, then:
as §1, with “days after” for “days following”, “second-instar” for “second-instar small”, “brown rice” for “brown”, “larvae having a low susceptibility to insecticides” for “larvae”, “The” for “The treated”, “and insects” for “and larvae”
The pests used in this test were insects that had been raised indoors for successive generations over a long period of time (susceptible line), and insects that had been raised indoors for successive generations after being collected (I) in 2007 within Kumamoto Prefecture and (II) in 2005 within Fukuoka Prefecture (field-collected lines).

A further series has as its system cotton aphid. The experiment in a line: whole plant or invertebrate. Conditions: Aphis gossypii, foliar. The procedure:
(§2) Leaf discs 2.0 cm in diameter were cut from cucumber plants grown in pots, and these were sprayed with solutions of the inventive compounds at a predetermined concentration prepared to 50% acetone/water (containing 0.05% Tween 20). The treated leaf discs were air dried, following which first-instar larvae were released onto the discs. The leaf discs and larvae were then held in an incubation chamber at 25° C. (16-hour period of light, 8-hour dark period). Three days after released, the numbers of live and dead insects were counted, and the mortality was calculated from the following formula. This was a two-replication test. Mortality (%)=[number of dead insects/(number of live insects+number of dead insects)]×100

Series [3] relates to small brown planthopper. In words: whole plant or invertebrate. Conditions: Laodelphax striatellus, in Triticum aestivum, 96 h. The procedure: as §1, with “Wheat seedling roots 48 hours after sowing” for “Rice seedlings grown in pots”, “treated” for “subjected to soil drenching treatment”, “After allowing the roots to absorb the chemical for 72 hours,” for “Three days following treatment,”, “Four” for “Three”

The next series deals with diamondback moth. The experiment in a line: whole plant or invertebrate. The following applies: Plutella xylostella, foliar. The method, then:
as §2, with “5.0” for “2.0”, “cabbage” for “cucumber”, “second-instar” for “first-instar”

In the next series the test system is common cutworm. In words: whole plant or invertebrate. The following applies: foliar application, 500 ppm. The method, then: as §2, with “5.0” for “2.0”, “cabbage” for “cucumber”, “third-instar” for “first-instar”
In a further series the test system is western flower thrips. In words: whole plant or invertebrate. Conditions: Frankliniella occidentalis, foliar. The procedure: as §2, with “2.8” for “2.0”, “bean” for “cucumber”
Where [4] appears, read: rice soil drenching, 0.05 mg/pot (Table 13), read-out: Small brown planthopper (rice soil drenching), effect.
Where [5] appears, read: rice soil drenching, 0.01 mg/pot (Table 13), read-out: Small brown planthopper (rice soil drenching), effect.
The mark [6] stands for this setting: soil, read-out: Small brown planthopper (rice soil drenching), effect.
[7] abbreviates: read-out: Insecticidal effects (mortality), cotton aphid first-instar larvae.
[8] abbreviates: read-out: Insecticidal effects (mortality), small brown planthopper second-instar larvae.
The mark [9] stands for this setting: read-out: Insecticidal effects (mortality), diamondback moth second-instar larvae.
[10] abbreviates: soil, read-out: Insecticidal effects (mortality), small brown planthopper second-instar larvae.
The mark [11] stands for this setting: read-out: Insecticidal effects (mortality), western flower thrips first-instar larvae.

Read-outs that look alike come from different tables or passages of the source.

Turning to `N#CN=c1ccccn1Cc1ccc(Cl)nc1` [Comparative Example 2, N-[1-((6-chloropyridin-3-yl)methyl)pyridin-2(1H)-ylidene]cyanamide, reference compound], in the series with small brown planthopper [1] (setting [4]), the pest or weed control at 0.05 mg/pot was found to be 20%.
For `CC(=O)/N=c1\ccccn1Cc1ccc(Cl)nc1` [Comparative Example 3, N-[1-((6-chloropyridin-3-yl)methyl)pyridin-2(2H)-ylidene]acetamide, reference compound], the pest or weed control at 0.05 mg/pot with small brown planthopper [1] (setting [4]) worked out at 10%.
`O=C(/C=C1\NCCN1Cc1ccc(Cl)nc1)C(F)(F)F` [Comparative Example 4, 3-[1-((6-chloropyridin-3-yl)methyl)imidazolidin-2-ylidene]-1,1,1-trifluoropropan-2-one, reference compound]: in series [2], the “Brown rice planthopper, Kumamoto low susceptibility (rice soil drenching), effect” value (from here on “Brown rice planthopper”) is 45. For the same molecule, the pest or weed control at 0.01 mg/pot with small brown planthopper [1] (setting [5]) was found to be 20%. In addition, the pest or weed control at 0.05 mg/pot in the series with small brown planthopper [1] (setting [4]) worked out at 100%.
Consider `O=C(/C=C1\SCCN1Cc1ccc(Cl)nc1)C(F)(F)F` [Comparative Example 5, 3-[3-((6-chloropyridin-3-yl)methyl)thiazolidin-2-ylidene]-1,1,1-trifluoropropan-2-one, reference compound], for which the “Brown rice planthopper” value in series [2] is reported as 25. In addition, the pest or weed control at 0.01 mg/pot with small brown planthopper [1] (setting [5]) stood at 15%. Moreover, the pest or weed control at 0.05 mg/pot with small brown planthopper [1] (setting [4]) was found to be 95%.
With `O=C(C(C(=O)C(F)(F)F)=C1NCCN1Cc1ccc(Cl)nc1)C(F)(F)F` [Comparative Example 6, 3-[1-((6-chloropyridin-3-yl)methyl)imidazolidin-2-ylidene]-1,1,1,5,5,5-hexafluoropentan-2,4-dione, reference compound], the “Brown rice planthopper” value in series [2] turned out to be 25. Besides, in the series on small brown planthopper [1] (setting [6]), the pest or weed control at 0.01 mg/pot amounted to 20% and the pest or weed control at 0.05 mg/pot amounted to 100%.
`O=C(/N=C1\SCCN1Cc1ccc(Cl)nc1)C(F)(F)F` [Comparative Example 8, N-[3-((6-chloropyridin-3-yl)methyl)thiazolidin-2-ylidene]-2,2,2-trifluoroacetamide, reference compound]: the pest or weed control at 0.05 mg/pot in the series on small brown planthopper [1] (setting [4]) amounted to 20%.
A word on the mortality: it is the share of the test organisms that died. `N#CNCc1ccc(Cl)nc1` [Compound 1 in Patent Document 1, N-[(6-chloropyridin-3-yl)methyl]cyanamide, reference compound]: the mortality at 500 ppm in the series on cotton aphid (in Cucumis sativus, 72 h) was determined as 65%.
In the series on cotton aphid (in Cucumis sativus, 72 h), `O=C(N=c1ccccn1Cc1ccc(Cl)nc1)C(Cl)(Cl)Cl` [Compound 235, 2,2,2-trichloro-N-[1-((6-chloropyridin-3-yl)methyl)pyridin-2(1H)-ylidene]acetamide] showed a mortality at 20 ppm of no less than 80%, a mortality at 100 ppm of no less than 80% and a mortality at 500 ppm of no less than 80%. In addition, the mortality at 20 µg/seedling in the series with small brown planthopper [3] was no less than 80%. In addition, in the series with diamondback moth (in Brassica oleracea, 72 h), the mortality at 100 ppm was no less than 80% and the mortality at 500 ppm is no less than 80%.
For `CC(c1ccc(Cl)nc1)n1ccccc1=NC(=O)C(F)(F)F` (centres unmarked) [Compound 237, N-[1-(1-(6-chloropyridin-3-yl)ethyl)pyridin-2(1H)-ylidene]-2,2,2-trifluoroacetamide], in the series on cotton aphid (setting [7]), the mortality at 20 ppm is 85%, the mortality at 100 ppm was 100% and the mortality at 500 ppm stood at 100%. For the same molecule, in the series on cotton aphid (in Cucumis sativus, 72 h), the mortality at 20 ppm was no less than 80%, the mortality at 100 ppm is no less than 80% and the mortality at 500 ppm is no less than 80%. Further, the mortality at 20 µg/seedling in the series with small brown planthopper [3] was no less than 80%. In the series on small brown planthopper [3] (setting [8]), the mortality at 0.5 mg/seedling was 50%, the mortality at 2 mg/seedling worked out at 100% and the mortality at 20 mg/seedling amounted to 100%. Also, in the series with diamondback moth (setting [9]), the mortality at 20 ppm stood at 100%, the mortality at 100 ppm was determined as 100% and the mortality at 500 ppm was determined as 100%. In the series with diamondback moth (in Brassica oleracea, 72 h), this molecule showed a mortality at 100 ppm of no less than 80% and a mortality at 500 ppm of no less than 80%. For the same molecule, the pest or weed control at 0.01 mg/pot in the series with small brown planthopper [1] (setting [5]) is 75%. Moreover, the pest or weed control at 0.05 mg/pot with small brown planthopper [1] (setting [4]) was 100%. Besides, the mortality at 0.05 mg/seedling with small brown planthopper [1] (soil) was no less than 80%. Besides, in the series on small brown planthopper [1] (setting [10]), the mortality at 0.01 mg/pot is 75% and the mortality at 0.05 mg/pot came to 100%. Also, the “Insecticidal effects (mortality), common cutworm third-instar larvae” value in the series on common cutworm is given as 33. In the series on western flower thrips (72 h), this molecule registered a mortality at 500 ppm of no less than 80%. In addition, in the series on western flower thrips (setting [11]), the mortality at 500 ppm turned out to be 90%.
`O=C(N=c1ccccn1Cc1ccc(Cl)nc1)C(F)F` [Compound 238, N-[1-((6-chloropyridin-3-yl)methyl)pyridin-2(1H)-ylidene]-2,2-difluoroacetamide]: in the series on cotton aphid (setting [7]), the mortality at 1.25 ppm is 100%, the mortality at 5 ppm was determined as 100%, the mortality at 20 ppm was 100% and the mortality at 100 ppm was found to be 100%. In the series on cotton aphid (in Cucumis sativus, 72 h), this molecule yielded a mortality at 20 ppm of no less than 80% and a mortality at 100 ppm of no less than 80%. The same molecule registered a mortality at 20 µg/seedling in the series with small brown planthopper [3] of no less than 80%. In addition, in the series on small brown planthopper [3] (setting [8]), the mortality at 0.063 mg/seedling worked out at 25%, the mortality at 0.25 mg/seedling is 100%, the mortality at 0.5 mg/seedling was determined as 100% and the mortality at 2 mg/seedling amounted to 100%. The mortality at 20 mg/seedling in the series with small brown planthopper [3] (setting [8]) was determined as 100%. In addition, in the series with diamondback moth (setting [9]), the mortality at 20 ppm was found to be 60% and the mortality at 100 ppm came to 100%. The mortality at 100 ppm with diamondback moth (in Brassica oleracea, 72 h) is no less than 80%. Moreover, the pest or weed control at 0.005 mg/pot with small brown planthopper [1] (rice soil drenching, 0.005 mg/pot (Table 13), read-out: Small brown planthopper (rice soil drenching), effect) came out at 33%. Besides, the pest or weed control at 0.01 mg/pot in the series with small brown planthopper [1] (setting [5]) was 100%. For the same molecule, the pest or weed control at 0.05 mg/pot with small brown planthopper [1] (setting [4]) came to 100%. This molecule also had a mortality at 0.05 mg/seedling in the series with small brown planthopper [1] (soil) of no less than 80%. In addition, in the series on small brown planthopper [1] (setting [10]), the mortality at 0.005 mg/pot turned out to be 33%, the mortality at 0.01 mg/pot came out at 100% and the mortality at 0.05 mg/pot amounted to 100%. The “Insecticidal effects (mortality), common cutworm third-instar larvae” value in the series on common cutworm worked out at 0. Moreover, the mortality at 100 ppm in the series with western flower thrips (72 h) was no less than 80%. The mortality at 100 ppm with western flower thrips (setting [11]) was 95%.
In the series on cotton aphid (in Cucumis sativus, 72 h), `O=C(N=c1ccccn1Cc1ccc(Cl)nc1)C(Br)Br` [Compound 241, 2,2-dibromo-N-[1-((6-chloropyridin-3-yl)methyl)pyridin-2(1H)-ylidene]-acetamide] had a mortality at 20 ppm of no less than 80% and a mortality at 100 ppm of no less than 80%. This molecule also displayed a mortality at 20 µg/seedling in the series on small brown planthopper [3] of no less than 80%. Further, the mortality at 500 ppm with diamondback moth (in Brassica oleracea, 72 h) is no less than 80%.
